Measurements published in patent US20130210733A1, “METHODS OF TREATING LUNG DISEASE” (Cytokinetics, Inc., priority 2010, published 2013).
Read-outs that look alike come from different tables or passages of the source.

Columns and labels:
[1] = test system: human pulmonary arterial smooth muscle cells from patients with idiopathic pulmonary arterial hypertension (IPAH HPASMC); assay: IPAH HPASMC proliferation assay; format: cell-based; settings: for inhibition at 1 µM: Homo sapiens; for inhibition at 1 µM / effect on proliferation (in words) / inhibition of proliferation normalized to FBS-induced growth / effect of combined treatment versus single agents (in words): IPAH HPASMC; for effect on proliferation (in words): concentrations up to 1 uM
Procedure: (§1) Primary cultures of human pulmonary arterial smooth muscle cells were derived from distal blood vessels taken from lungs harvested from patients with idiopathic pulmonary arterial hypertension (IPAH) who had been treated with iloprost or a combination of epoprostenol and bosentan for at least 1.4 years. Cells were cultured for 24 hours in 6-well plates in a solution of human smooth muscle basal medium (SMBM; TCS Cellworks, UK) with 9% fetal bovine serum (FBS; Invitrogen, US) and penicillin-streptomycin (PenStrep; 50 units/mL; Invitrogen, US). The incubating solution was then changed to PenStrep in SMBM and the cells were allowed to incubate for another 48 hours. Test compounds were administered to the test wells as DMSO solutions with FBS (FBS and DMSO or SMBM were administered to the control wells). After 96 hours of incubation, the cells were trypsinized (0.05% trypsin/EDTA; Invitrogen, US) and 20 uL of cell suspension was added to 20 uL of Accustain solution T and Accustain solution N (Labtech, UK). The cells were counted and their viability assessed using an ADAM Automated Cell Counter (Digital Bio, Korea). Results were expressed in cell number per mL and percent growth compared to FBS-induced growth alone.

[2] = test system: human pulmonary arterial smooth muscle cells from healthy patients (normal HPASMC); assay: Normal HPASMC proliferation assay; format: cell-based; settings: for inhibition at 1 µM: Homo sapiens, read-out: inhibition of proliferation normalized to FBS-induced growth; for effect on proliferation (in words): normal HPASMC, 1 pM to 1 uM
Procedure: as §1
As a control, primary cultures of human pulmonary arterial smooth muscle cells were derived from distal blood vessels taken from lungs harvested from healthy patients according to procedure described in Example 1. Treprostinil sodium was tested in these cells under the conditions described in Example 1 at concentrations of 1 pM, 10 pM, 100 pM, 1 nM, 10 nM, 100 nM, and 1 uM. The experiment was repeated four times and the results were averaged.

[3] = test system: human lung fibroblasts from patients with ideopathic pulmonary fibrosis (IPF) with secondary pulmonary arterial hypertension (PAH); assay: Fibroblast proliferation assay; format: cell-based; settings: for effect on proliferation (in words): lung fibroblasts from IPF patients with secondary PAH, 1 pM to 1 uM
Procedure: as §1
(§2) Using the procedure described in Example 1, primary cultures of human lung fibroblasts were derived from lungs harvested from patients with ideopathic pulmonary fibrosis (IPF) with secondary pulmonary arterial hypertension (PAH) who had previously been treated with epoprostenol, bosentan, and/or steroids. Treprostinil sodium was tested in these cells under the conditions described in Example 1 at concentrations of 1 pM, 10 pM, 100 pM, 1 nM, 10 nM, 100 nM, and 1 uM. The experiment was repeated four times and the results were averaged.

[4] = Fibroblast proliferation assay; format: cell-based, human; settings: Homo sapiens, Fibroblast, read-out: inhibition of proliferation normalized to FBS-induced growth
Procedure: as §1, §2

[5] = 1 uM test compound, 96 hours incubation, cell count, read-out: inhibition of proliferation normalized to FBS-induced growth
[6] = 1 uM test compound, 96 hours incubation, cell count

## CCCC[C@@H](NC(=O)[C@@H](Cc1cn(C(=O)OC)c2ccccc12)NC(=O)[C@H](CC(C)(C)C)NC(=O)N1[C@H](C)CCC[C@@H]1C)C(=O)O [BQ788, reference compound]
[1]; [5]
  inhibition at 1 µM: ~20%
[1]
  effect on proliferation (in words): inhibited proliferation of IPAH cells at higher concentrations

## Cc1ccc(C(=O)N(CCCN)[C@@H](c2oc3cc(Cl)ccc3c(=O)c2Cc2ccccc2)C(C)C)cc1 [Compound A, N-(3-Aminopropyl)-N-[(R)-(1-3-benzyl-7-chloro-4-oxo-4H-chromen-2-yl)-2-methyl-propyl]-4-methyl-benzamide]
[1]; [6]
  inhibition of proliferation normalized to FBS-induced growth: approximately 70%
[1]
  effect on proliferation (in words): inhibited proliferation of IPAH cells in a dose dependent manner

## CC(C)Oc1ccc(C(=O)N[C@H](CNC(=O)CN(C)C)Cc2ccc(-c3cn4cccc([C@H](C)O)c4n3)cc2)cc1Cl [Compound B, 3-Chloro-N-{(1S)-2-[(N,N-dimethylglycyl)amino]-1-[(4-{8-[(1S)-1-hydroxyethyl]imidazo[1,2-c]pyridin-2-yl}phenyl)methyl]ethyl}-4-[(1-methylethyl)oxy]benzamide]
[1]; [6]
  inhibition of proliferation normalized to FBS-induced growth: approximately 95%
[1]
  effect on proliferation (in words): inhibited proliferation of IPAH cells in a dose dependent manner

## COC(c1ccccc1)(c1ccccc1)[C@H](Oc1nc(C)cc(C)n1)C(=O)O [ambrisentan, reference compound]
[1]; [5]
  inhibition at 1 µM: ~25%

## COc1ccccc1Oc1c(NS(=O)(=O)c2ccc(C(C)(C)C)cc2)nc(-c2ncccn2)nc1OCCO [bosentan, reference compound]
[1]; [5]
  inhibition at 1 µM: ~20%
[1]
  effect on proliferation (in words): inhibited proliferation of IPAH HPASMC cells at higher concentrations

## CC#CCC(C)[C@H](O)/C=C/[C@@H]1[C@H]2C/C(=C/CCCC(=O)O)C[C@H]2C[C@H]1O (stereo partly drawn) [iloprost, reference compound]
[1]; [5]
  inhibition at 1 µM: ~40%
[1]
  effect on proliferation (in words): inhibited proliferation of IPAH HPASMC cells in a dose dependent manner

## CS(=O)(=O)O.Cc1ccc(C(=O)N(CCCN)[C@@H](c2nc3cc(Cl)ccc3c(=O)n2Cc2ccccc2)C(C)C)cc1 [ispinesib mesylate, N-(3-aminopropyl)-N-[(1R)-1-(3-benzyl-7-chloro-4-oxo-3,4-dihydroquinazolin-2-yl)-2-methylpropyl]-4-methylbenzamide monomethanesulfonate]
[2]
  inhibition at 1 µM: ~55%
  effect on proliferation (in words): inhibited proliferation of fibroblasts in a dose dependent manner
[2]; normal HPASMCs
  potency compared with treprostinil sodium (in words): slightly more potent than treprostinil sodium
[1]; 96 h, read-out: inhibition of proliferation normalized to FBS-induced growth, 1 uM test compound, 96 hours incubation, cell count
  inhibition at 1 µM: ~80%
[1]; read-out: inhibition of proliferation normalized to FBS-induced growth, combination, 1 uM ispinesib mesylate and 10 nM treprostinil sodium
  inhibition at 1 µM: ~90%
[1]; read-out: inhibition of proliferation normalized to FBS-induced growth, combination, 1 uM ispinesib mesylate and 100 nM BQ788
  inhibition at 1 µM: ~75%
[1]; read-out: inhibition of proliferation normalized to FBS-induced growth, combination, 1 uM ispinesib mesylate and 100 nM ambrisentan
  inhibition at 1 µM: ~80%
[1]; read-out: inhibition of proliferation normalized to FBS-induced growth, combination, 1 uM ispinesib mesylate and 100 nM bosentan
  inhibition at 1 µM: ~99%
[1]; read-out: inhibition of proliferation normalized to FBS-induced growth, combination, 1 uM ispinesib mesylate, 100 nM ambrisentan and 100 nM BQ788
  inhibition at 1 µM: ~95%
[1]
  effect on proliferation (in words): inhibited proliferation of IPAH cells in a dose dependent manner
[1]; comparison of Examples 9, 16 and 18
  potency in IPAH HPASMCs and fibroblasts compared with normal HPASMCs (in words): significantly more potent at inhibiting proliferation of IPAH HPASMCs and fibroblasts than normal HPASMCs
[1]; ispinesib mesylate (1 pM to 1 uM) with 10 nM treprostinil sodium
  effect of combined treatment versus single agents (in words): enhanced the antiproliferative effects of either agent alone
[1]; ispinesib mesylate (1 pM to 1 uM) with 100 nM bosentan
  effect of combined treatment versus single agents (in words): enhanced the antiproliferative effects of either agent alone
[3]; lung fibroblasts derived from IPF patients with secondary PAH
  potency compared with treprostinil sodium (in words): significantly more potent than treprostinil sodium
[3]
  effect on proliferation (in words): inhibited proliferation of fibroblasts in a dose dependent manner
[4]
  inhibition at 1 µM: ~75%

## CCCCC[C@H](O)CC[C@@H]1[C@H]2Cc3cccc(OCC(=O)O)c3C[C@H]2C[C@H]1O [treprostinil sodium, reference compound]
[2]; 1 uM test compound, normal HPASMC from healthy patients
  inhibition at 1 µM: ~35%
[2]
  effect on proliferation (in words): inhibited normal HPASMC proliferation at higher concentrations
[1]; [5]
  inhibition at 1 µM: ~60%
[1]
  effect on proliferation (in words): inhibited proliferation of IPAH HPASMC cells in a dose dependent manner
[3]
  effect on proliferation (in words): inhibited proliferation of fibroblasts at higher concentrations
[4]; 1 uM test compound, lung fibroblasts from IPF patients with secondary PAH
  inhibition at 1 µM: ~45%
